Results from US8124610B2, “Sodium channel inhibitors” (Icagen Inc., priority 2007, dated 2012).
pIC50: −log10 of the molar value.

What was measured:
hSCN3A = biological target: T1, hSCN3A (Homo sapiens, UniProt Q9NY46); test: Whole-cell patch-clamp electrophysiology (conventional or PatchXpress), HEK cells expressing hSCN3A, estimated IC-50; type: cell-based; conditions: estimated IC-50, HEK cells expressing hSCN3A; class symbols or bounds; read-out: SCN3A EIC-50
T1 construct: expressed in transfected cells
In short: (§1)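 Stably transfected HEK cells recorded by whole-cell voltage clamp (manual or PatchXpress) at 22–24 °C in pH 7.4 HEPES-buffered extracellular solution. Cells held at the empirically determined inactivation V1/2 after an 8 s prepulse, then stepped to 0 mV for 20 ms; % inhibition from current amplitude before vs after compound.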

hSCN9A = biological target: T2, hSCN9A (Homo sapiens, UniProt Q15858); test: Whole-cell patch-clamp electrophysiology (conventional or PatchXpress), HEK cells expressing hSCN9A, estimated IC-50; type: cell-based; conditions: estimated IC-50, HEK cells expressing hSCN9A; class symbols or bounds; read-out: SCN9A EIC-50
T2 construct: expressed in transfected cells
In short: as §1

Nav1.3 = Nav1.3 (Homo sapiens, UniProt Q9NY46); conditions: read-out: TTX IC-50; cited from earlier work
Nav1.2 = Nav1.2 (Homo sapiens, UniProt Q99250); conditions: read-out: TTX IC-50; cited from earlier work
Nav1.1 = Nav1.1 (Homo sapiens, UniProt P35498); conditions: read-out: TTX IC-50; cited from earlier work
Nav1.6 = Nav1.6 (Homo sapiens, UniProt Q9UQD0); conditions: read-out: TTX IC-50; cited from earlier work
Chain of Nav1.6 (Q9UQD0 whole entry, looked up): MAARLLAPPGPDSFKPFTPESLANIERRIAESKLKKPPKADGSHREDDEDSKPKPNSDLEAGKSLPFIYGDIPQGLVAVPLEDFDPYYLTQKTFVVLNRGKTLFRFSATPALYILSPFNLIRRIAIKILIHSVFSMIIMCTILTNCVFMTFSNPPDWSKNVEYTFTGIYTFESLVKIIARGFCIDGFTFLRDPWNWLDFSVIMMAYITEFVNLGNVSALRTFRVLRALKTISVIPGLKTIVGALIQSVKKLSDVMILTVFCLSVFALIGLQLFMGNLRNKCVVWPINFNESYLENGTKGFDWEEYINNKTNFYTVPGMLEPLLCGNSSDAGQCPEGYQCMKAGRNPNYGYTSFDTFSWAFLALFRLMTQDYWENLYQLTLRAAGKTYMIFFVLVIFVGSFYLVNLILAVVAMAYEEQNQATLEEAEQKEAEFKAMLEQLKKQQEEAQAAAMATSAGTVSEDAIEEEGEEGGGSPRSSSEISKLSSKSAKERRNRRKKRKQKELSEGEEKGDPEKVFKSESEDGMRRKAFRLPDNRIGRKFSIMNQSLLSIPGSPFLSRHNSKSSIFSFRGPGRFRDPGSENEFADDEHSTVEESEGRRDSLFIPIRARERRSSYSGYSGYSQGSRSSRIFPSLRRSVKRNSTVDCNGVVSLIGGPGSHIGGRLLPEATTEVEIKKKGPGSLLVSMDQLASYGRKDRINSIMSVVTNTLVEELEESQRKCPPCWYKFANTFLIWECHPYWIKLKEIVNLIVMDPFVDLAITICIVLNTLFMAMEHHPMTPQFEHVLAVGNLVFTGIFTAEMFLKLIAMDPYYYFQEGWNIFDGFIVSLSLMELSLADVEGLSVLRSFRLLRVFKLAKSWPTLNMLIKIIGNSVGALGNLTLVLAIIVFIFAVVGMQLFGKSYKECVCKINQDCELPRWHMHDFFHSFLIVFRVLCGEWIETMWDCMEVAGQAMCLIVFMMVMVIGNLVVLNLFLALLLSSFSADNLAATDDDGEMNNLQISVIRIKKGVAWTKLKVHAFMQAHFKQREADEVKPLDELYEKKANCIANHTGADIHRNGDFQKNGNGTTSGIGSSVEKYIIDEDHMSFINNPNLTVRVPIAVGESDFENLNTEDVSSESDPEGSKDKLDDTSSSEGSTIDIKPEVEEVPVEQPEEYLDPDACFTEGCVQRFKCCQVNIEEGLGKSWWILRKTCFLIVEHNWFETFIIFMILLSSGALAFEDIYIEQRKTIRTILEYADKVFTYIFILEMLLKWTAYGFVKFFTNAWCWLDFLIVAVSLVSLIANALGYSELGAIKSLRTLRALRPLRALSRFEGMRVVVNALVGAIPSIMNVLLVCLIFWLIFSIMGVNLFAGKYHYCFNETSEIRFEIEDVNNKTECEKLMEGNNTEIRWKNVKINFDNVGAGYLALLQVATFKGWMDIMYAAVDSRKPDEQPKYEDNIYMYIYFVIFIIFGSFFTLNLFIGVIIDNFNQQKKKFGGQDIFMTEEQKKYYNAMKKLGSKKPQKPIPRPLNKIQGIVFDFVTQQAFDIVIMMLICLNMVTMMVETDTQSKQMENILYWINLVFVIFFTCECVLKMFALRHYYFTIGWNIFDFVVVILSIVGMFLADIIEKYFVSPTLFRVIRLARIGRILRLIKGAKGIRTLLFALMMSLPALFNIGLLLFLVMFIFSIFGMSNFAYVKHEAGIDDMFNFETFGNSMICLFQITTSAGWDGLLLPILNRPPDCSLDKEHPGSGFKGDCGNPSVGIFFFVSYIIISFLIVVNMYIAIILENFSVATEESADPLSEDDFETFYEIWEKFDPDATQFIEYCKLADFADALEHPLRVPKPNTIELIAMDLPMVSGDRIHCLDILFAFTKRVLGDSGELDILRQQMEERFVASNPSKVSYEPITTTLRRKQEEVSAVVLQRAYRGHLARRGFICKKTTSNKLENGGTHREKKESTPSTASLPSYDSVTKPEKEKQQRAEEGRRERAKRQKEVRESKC

Nav1.9 = Nav1.9 (Homo sapiens, UniProt Q9UI33); conditions: read-out: TTX IC-50; cited from earlier work
Nav1.8 = Nav1.8 (Homo sapiens, UniProt Q9Y5Y9); conditions: read-out: TTX IC-50; cited from earlier work
Chain of Nav1.8 (Q9Y5Y9 whole entry, looked up): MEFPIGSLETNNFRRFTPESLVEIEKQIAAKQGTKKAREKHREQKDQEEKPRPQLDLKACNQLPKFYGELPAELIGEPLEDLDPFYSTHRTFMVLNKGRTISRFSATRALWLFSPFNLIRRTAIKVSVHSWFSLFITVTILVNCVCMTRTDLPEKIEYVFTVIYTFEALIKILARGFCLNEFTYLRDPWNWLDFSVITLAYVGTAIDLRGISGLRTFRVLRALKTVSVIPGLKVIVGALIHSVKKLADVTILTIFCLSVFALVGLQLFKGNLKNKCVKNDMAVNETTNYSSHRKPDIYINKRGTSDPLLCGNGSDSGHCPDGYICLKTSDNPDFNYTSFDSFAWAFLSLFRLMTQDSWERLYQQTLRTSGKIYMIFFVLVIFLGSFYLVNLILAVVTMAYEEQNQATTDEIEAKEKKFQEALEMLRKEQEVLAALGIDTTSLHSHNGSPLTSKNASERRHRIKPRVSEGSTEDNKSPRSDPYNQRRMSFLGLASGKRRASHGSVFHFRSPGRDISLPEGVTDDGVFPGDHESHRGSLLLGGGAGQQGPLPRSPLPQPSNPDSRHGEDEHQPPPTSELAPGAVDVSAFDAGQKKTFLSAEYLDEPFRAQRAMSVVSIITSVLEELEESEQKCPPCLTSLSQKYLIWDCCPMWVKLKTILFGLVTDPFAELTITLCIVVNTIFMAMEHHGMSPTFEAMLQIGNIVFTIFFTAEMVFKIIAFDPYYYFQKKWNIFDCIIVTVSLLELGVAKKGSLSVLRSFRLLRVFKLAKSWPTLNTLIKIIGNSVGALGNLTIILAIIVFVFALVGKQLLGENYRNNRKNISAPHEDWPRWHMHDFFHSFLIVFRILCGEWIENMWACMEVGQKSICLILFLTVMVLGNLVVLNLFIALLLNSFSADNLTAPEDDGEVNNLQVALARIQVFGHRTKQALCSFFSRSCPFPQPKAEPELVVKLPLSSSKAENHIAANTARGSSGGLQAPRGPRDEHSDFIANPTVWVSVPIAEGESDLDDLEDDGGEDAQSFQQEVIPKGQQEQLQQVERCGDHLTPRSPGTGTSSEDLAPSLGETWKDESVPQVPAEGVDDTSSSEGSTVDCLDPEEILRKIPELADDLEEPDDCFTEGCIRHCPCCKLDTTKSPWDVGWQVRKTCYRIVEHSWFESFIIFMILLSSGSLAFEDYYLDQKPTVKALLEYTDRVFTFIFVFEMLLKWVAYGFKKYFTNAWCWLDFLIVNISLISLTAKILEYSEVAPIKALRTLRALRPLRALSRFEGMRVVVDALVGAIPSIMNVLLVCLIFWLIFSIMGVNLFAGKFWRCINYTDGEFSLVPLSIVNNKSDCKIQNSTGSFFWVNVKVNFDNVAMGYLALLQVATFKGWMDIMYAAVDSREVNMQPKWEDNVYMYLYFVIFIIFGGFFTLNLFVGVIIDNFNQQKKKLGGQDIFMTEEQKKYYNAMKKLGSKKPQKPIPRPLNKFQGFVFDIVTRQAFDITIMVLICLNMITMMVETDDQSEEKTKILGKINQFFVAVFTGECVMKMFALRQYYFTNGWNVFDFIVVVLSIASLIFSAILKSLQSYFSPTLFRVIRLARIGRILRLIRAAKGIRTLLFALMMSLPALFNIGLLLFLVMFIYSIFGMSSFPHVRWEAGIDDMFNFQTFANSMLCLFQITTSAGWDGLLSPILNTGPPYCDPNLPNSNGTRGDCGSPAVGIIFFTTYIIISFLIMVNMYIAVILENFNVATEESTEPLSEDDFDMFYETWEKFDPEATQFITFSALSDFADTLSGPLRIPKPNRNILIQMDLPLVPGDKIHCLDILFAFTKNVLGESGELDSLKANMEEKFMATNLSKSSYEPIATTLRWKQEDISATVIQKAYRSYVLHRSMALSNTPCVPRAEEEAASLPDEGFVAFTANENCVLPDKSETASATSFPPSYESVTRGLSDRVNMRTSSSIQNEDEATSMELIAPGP

[1] = cited from earlier work

## O=C(Cn1ncc2cc(S(=O)(=O)Nc3nccs3)ccc21)c1ccc(F)cc1 [Compound 280, 1-(2-(4-fluorophenyl)-2-oxoethyl)-N-(thiazol-2-yl)-1H-indazole-5-sulfonamide]
hSCN3A
  pIC50: 5.00 to 5.70
hSCN9A
  pIC50: 5.00 to 5.70

## NC1=N[C@H](O)[C@H]2[C@H]3O[C@]4(O)O[C@@H]([C@@H](O)[C@@]2(N1)[C@@H]4O)[C@]3(O)CO [TTX, tetrodotoxin]
Nav1.3
  pIC50: 7.82
Nav1.2
  pIC50: 8.00
Nav1.1
  pIC50: 8.00
Nav1.6
  pIC50: 8.22
Nav1.9
  pIC50: 6.00
Nav1.8
  pIC50: 4.30

## NCC1(CC(=O)O)CCCCC1 [gabapentin]
[1]
  patients that respond to gabapentin treatment for neuropathic pain: 30%
